The text below walks through data of patent US11046745B2, “Peptide mimotopes of the CD3 T-cell co-receptor epsilon chain and uses thereof” (BioNTech SE, priority 2015, dated 2021).

Each structure is given as a SMILES string. Positions of bridges follow the written chain, without caps; N, C: chain ends. Residues, ends and D or L forms follow the SMILES beside them. *: point of attachment. Biotin = O=C1N[C@H]2[C@H](CS[C@H]2CCCCC(=O)*)N1

The subject of assay [1] is TR66 antibody (CD3ε specific antibody, clone TR66). Nature of the assay: Binding analysis using biolayer interferometry (BLI), Octet Red, biotinylated peptides on streptavidin sensors. The following applies: 500 nM TR66 antibody, one concentration. As for the experimental part:
FIG. 5. Comparative binding analysis of matured TR66 mimotopes aCD3-04-002 and aCD3-04-013 using biolayer interferometry (BLI) on an Octet Red system (fortéBIO). Biotinylated peptides were immobilized onto streptavidin (SA) sensors. After blocking with 1× blocking buffer and biocytin association and dissociaten rates of TR66 binding were recorded over a period of 2400 sec respectively. The antibody was used in a range of 1.5625 to 100 nM (1.5625, 3.125, 6.25, 12.5, 25, 50, 100 nM) for each analyzed peptide.
Binding analysis was performed using streptavidin (SA) sensors on an Octet Red system (fortéBIO). 5 μg/ml of biotinylated peptides were used for loading (200 μl per sensor). […] Remained biotin binding sites on coated streptavidin sensors were blocked using 100 μg/ml biocytin (Sigma-Aldrich) for 5 minutes. For binding mode analysis of different peptides 500 nM TR66 antibody was used in the association step. For detailed analysis the antibody was used in a range of 1.5625 to 100 nM (1.5625, 3.125, 6.25, 12.5, 25, 50, 100 nM) for each analyzed peptide. The following program was used: • Baseline: 1000 rpm for 180 sec. • Load: 1000 rpm for 900 sec. • Baseline: 1000 rpm for 180 sec. • Blocking: 1000 rpm for 300 sec. • Association: 1000 rpm for 1200-2400 sec. • Dissociation: 1000 rpm for 1200-2400 sec.
The peptides displaying the highest binding affinities from the peptide microarray experiments were synthesized by standard Fmoc-based solid-phase-synthesis protocols and purified (HPLC purity: >80%). The binding characteristics of each peptide were determined. In the first instance all peptides were analysed via biolayer interferometry (BLI) to get a first impression whether the respective variant has a significant binding property at all (yes/no binding, Table 2). At his point, only one TR66 concentration (500 nM) was tested. Except variants aCD3-04-010 and aCD3-04-012 all peptides show a measurable binding activity.

Assay [2] has as its target TR66 antibody (CD3ε specific antibody, clone TR66). Nature of the assay: Binding analysis using peptide ELISA, biotinylated peptides on streptavidin plates, TR66. As for the experimental part:
FIG. 3. Binding analysis of phage derived variants using a peptide based ELISA. Biotinylated peptides were immobilized on streptavidin plates (Nunc) in a concentration of 0.75 μg/ml. After blocking 30 μg/ml TR66 or an unrelated antibody (control ab) were added and incubated for 1 h at 37° C. Binding was detected with an alkaline phosphatase conjugated goat anti-human IgG antibody (Sigma) and the chromogenic substrate PNPP (para-nitrophenyl phosphate). All reactions were performed as duplicates. SD values are presented as error bars.
For the detection of TR66 or OKT3 (Bio-X-Cell), the CD3 mimicking peptides were immobilized on streptavidin plates (Nunc) in a concentration of 0.75 μg/ml in PBS buffer for 1 hour at 37° C. Subsequently, the plate was washed three times with washing buffer (0.01% Tween-20 in PBS buffer) before it was blocked with 3% BSA in PBS overnight at 4° C. To detect TR66 or OKT3, the blocked plate was washed again three times with washing buffer followed by the addition of TR66 or OKT3 and incubation for 30 min at 37° C. After another washing step, it was incubated with an alkaline phosphatase conjugated Goat anti-human or anti-mouse IgG, Fe antibody (Jackson Immuno Research) for additional 30 min at 37° C. Finally, the plate was washed again before being incubated with 1.5 mg/ml of the substrate PNPP (para-nitrophenyl phosphate) in appropriate substrate buffer (1 M Diethanolamine, 0.05 mM MgCl2, 0.01% sodium azide, pH 9.8) for 30 min at RT in the dark. 3 M KOH was used to stop the enzymatic reaction. Absorbance was measured with a microplate reader (Infinite M200, Tecan). For dual wavelength analysis, 405 nm was chosen as measurement wavelength and 492 nm as reference wavelength. Absorbance values were calculated by subtraction of the measured values for the reference wavelength and for the measurement wavelength. Calculation of apparent KD values was done by fitting the data with Sigma Plot 10 using a two-site saturation binding model.

The subject of another assay is TR66 antibody. The experiment in a line: Peptide microarray incubated with TR66, fluorescently labelled secondary antibody. The note with it: cyclic peptide immobilized through C-terminus; 1.0 μg/ml TR66; data not shown. The format is binding. How it is done:
Peptides were synthesized and printed on peptide-microarray slides essentially as described previously (Funkner, A. et al., J. Mol. Biol. 425, 1340-1362 (2013)). In brief, the peptides were synthesized using SPOT synthesis (Wenschuh, H. et al., Biopolymers 55, 188-206 (2000)) cleaved from the solid support and cyclized (50% DMSO, PBS buffer pH 7-8, RT, 16 hours). Subsequently, all peptides were chemoselectively immobilized on functionalized glass slides as described earlier (Schnatbaum, K. et al., Biotechnol. J. 9, 545-554 (2014); Funkner, A. et al., J. Mol. Biol. 425, 1340-1362 (2013)). Each peptide was deposited on the microarray in triplicates.
The microarrays were incubated with 1.0 or 0.1 μg/ml TR66 in an HS 4800 microarray processing station (Tecan) for two hours at 30° C., followed by incubation with 1.0 μg/ml fluorescently labelled secondary antibody (Alexa647 anti-human Fe antibody; Jackson Immuno Research). Washing steps were performed prior every incubation step with 0.1% Tween-20 in 1×TBS. After the final incubation step the microarrays were washed (0.05% Tween-20 in 0.1×SSC) and dried in a stream of nitrogen. Each microarray was scanned using a GenePix Autoloader 4200AL (Molecular Devices, Pixel size: […]). Signal intensities were evaluated using GenePix Pro 7.0 analysis software (Molecular Devices). For each peptide, the mean of the three triplicates was calculated. […]

For `C[C@H](N)C(=O)N[C@H]1CSSC[C@@H](C(=O)NCC(=O)NCC(=O)NCC(=O)N[C@@H](CO)C(=O)N[C@@H](CCCCNC(=O)CCCC[C@@H]2SC[C@@H]3NC(=O)N[C@@H]32)C(=O)O)NC(=O)[C@H](CCC(N)=O)NC(=O)[C@@H]2CCCN2C(=O)[C@H](CC(=O)O)NC(=O)CNC(=O)[C@@H]2CCCN2C(=O)[C@H](CCCNC(=N)N)NC(=O)[C@H]([C@@H](C)O)NC1=O` [aCD3 C7C-4, ACTRPGDPQC-GGGS-K(Bio)] (H-ACTRPGDPQCGGGSK(Biotin)-OH; disulfide 2-10), the “Yes/no binding, BLI” value in assay [1] is given as “Yes”. In assay [2] (TR66, mean of at least two individual measurements, two-site saturation binding model, read-out: Apparent KD, ELISA), the Kd is 0.37 µM. Further, the “TR66 binding after chemical synthesis, ELISA-based binding analysis (FIG. 3)” value in assay [2] (peptide 0.75 μg/ml, 30 μg/ml TR66) was “could be verified”. In the assay with TR66 antibody, the “TR66 binding on peptide microarray” value is “strong binding”.
